pKi: −log10 of the molar value.
How the values were obtained:
[1] = biological target: T1, Human recombinant MMP-14 (Homo sapiens, UniProt P50281); assay: In vitro MMP inhibition, Ki determination (fluorogenic substrate II); type: biochemical
T1 construct: The catalytic domain enzyme was expressed in E. coli inclusion bodies, solubilized in urea; made in house
Method in brief: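 Refolded E. coli-expressed MMP-14 catalytic domain, APMA- or trypsin-activated, incubated 1 h at room temperature with 4 μM fluorogenic substrate II in pH 7.5 Tris/NaCl/CaCl2 buffer; fluorescence read at 330/420 nm. Ki from Morrison-equation non-linear regression, substrate at or below Km, uncorrected for substrate.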

[2] = biological target: T2, Human recombinant MMP-13 (Homo sapiens, UniProt P45452); assay: as above; type: biochemical
T2 construct: made in house; host or cells: baculovirus / insect cells
Method in brief: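 Baculovirus-expressed proenzyme, APMA-activated; 4 μM fluorogenic MCA/Dpa peptide substrate (II), at or below Km, in Tris buffer pH 7.5 with CaCl2, 1 hr at room temperature. Fluorescence at 330/420 nm; Ki from non-linear regression with Morrison's equation, not corrected for substrate.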

[3] = substrate (II) 4 μM, 1 hr room temperature, apparent Ki, values in parenthesis

Structure (SMILES)	pKi ([1]; value in parenthesis)	pKi ([2]; value in parenthesis)	pKi ([1]; value in parentheses)	pKi ([2]; value in parentheses)	also measured
COCCN1CCC(C(=O)NO)(S(=O)(=O)c2ccc(OCCc3cccc(-c4ccccc4)c3)cc2)CC1 [Example 45]	–	–	–	–	pKi [1, 3]: < 5.00; pKi [2, 3]: 9.21
COCCN1CCC(C(=O)NO)(S(=O)(=O)c2ccc(OCCCc3cccc(-c4ccc(Cl)cc4)c3)cc2)CC1 [Example 50]	–	–	–	–	pKi [1, 3]: < 5.00; pKi [2, 3]: 9.22
COCCN1CCC(C(=O)NO)(S(=O)(=O)c2ccc(OCCCc3cccc(-c4ccc(F)c(F)c4)c3)cc2)CC1 [Example 52]	–	–	–	–	pKi [1, 3]: < 5.00; pKi [2, 3]: 9.09
O=C(NO)C1(S(=O)(=O)c2ccc(OCCCc3nc(-c4ccc(OC(F)(F)F)cc4)no3)cc2)CCN(Cc2ccccc2)CC1 [Example 93]	< 5.00	8.03	–	–	–
CC(C)c1ccc(-c2cccc(CCOc3ccc(S(=O)(=O)C4(C(=O)NO)CCOCC4)cc3)c2)cc1 [Example 109]	< 5.00	7.03	–	–	–
O=C(NO)C1(S(=O)(=O)c2ccc(OCCc3cccc(-c4cc(F)cc(F)c4)c3)cc2)CCOCC1 [Example 110]	< 5.00	7.94	–	–	–
O=C(NO)C1(S(=O)(=O)c2ccc(OCCc3cccc(-c4cccc(F)c4)c3)cc2)CCOCC1 [Example 111]	< 5.00	8.19	–	–	–
O=C(NO)C1(S(=O)(=O)c2ccc(OCCc3cccc(-c4ccc(OC(F)(F)F)cc4)c3)cc2)CCOCC1 [Example 112]	< 5.00	7.29	–	–	–
O=C(NO)C1(S(=O)(=O)c2ccc(OCCc3cccc(-c4ccccc4Cl)c3)cc2)CCOCC1 [Example 114]	< 5.00	8.38	–	–	–
Cc1ccccc1-c1cccc(CCOc2ccc(S(=O)(=O)C3(C(=O)NO)CCOCC3)cc2)c1 [Example 116]	< 5.00	8.29	–	–	–
Cc1ccc(-c2cccc(CCOc3ccc(S(=O)(=O)C4(C(=O)NO)CCOCC4)cc3)c2)cc1C [Example 117]	< 5.00	7.68	–	–	–
Cc1cc(-c2cccc(CCOc3ccc(S(=O)(=O)C4(C(=O)NO)CCOCC4)cc3)c2)ccc1Cl [Example 118]	< 5.00	7.73	–	–	–
COc1ccc(-c2cccc(CCOc3ccc(S(=O)(=O)C4(C(=O)NO)CCOCC4)cc3)c2)cc1C [Example 119]	< 5.00	7.50	–	–	–
O=C(NO)C1(S(=O)(=O)c2ccc(OCCc3cccc(-c4ccc(Cl)c(Cl)c4)c3)cc2)CCOCC1 [Example 121]	< 5.00	7.57	–	–	–
O=C(NO)C1(S(=O)(=O)c2ccc(OCCc3cccc(-c4ccc(Cl)cc4Cl)c3)cc2)CCOCC1 [Example 124]	< 5.00	7.70	–	–	–
O=C(NO)C1(S(=O)(=O)c2ccc(OCCc3cccc(-c4cc(Cl)cc(Cl)c4)c3)cc2)CCOCC1 [Example 126]	< 5.00	7.09	–	–	–
COCCN1CCC(C(=O)NO)(S(=O)(=O)c2ccc(OCCCc3nc(-c4ccc(CC(C)C)cc4C)no3)cc2)CC1 [Example 128]	< 5.00	7.86	–	–	–
NC(=O)c1cccc(-c2noc(CCCOc3ccc(S(=O)(=O)C4(C(=O)NO)CCN(C5CC5)CC4)cc3)n2)c1 [Example 129]	< 5.00	9.57	–	–	–
COCCN1CCC(C(=O)NO)(S(=O)(=O)c2ccc(OCCCc3nc(-c4ccc(Br)cc4C)no3)cc2)CC1 [Example 135]	5.02	9.12	–	–	–
O=C(NO)C1(S(=O)(=O)c2ccc(OCCCc3nc(C4CCCCC4)no3)cc2)CCN(C2CC2)CC1 [Example 137]	< 5.00	9.01	–	–	–
Cc1cc(-c2cccc(CCCOc3ccc(S(=O)(=O)C4(C(=O)NO)CCOCC4)cc3)c2)ccc1Cl [Example 166]	< 5.00	7.20	–	–	–
Cc1cc(-c2cccc(CCCOc3ccc(S(=O)(=O)C4(C(=O)NO)CCOCC4)cc3)c2)ccc1F [Example 168]	< 5.00	7.56	–	–	–

Structure (SMILES)	pKi ([1]; value in parenthesis)	pKi ([2]; value in parenthesis)	pKi ([1]; value in parentheses)	pKi ([2]; value in parentheses)	also measured
O=C(NO)C1(S(=O)(=O)c2ccc(OCCCc3cccc(-c4ccc(Cl)c(Cl)c4)c3)cc2)CCOCC1 [Example 169]	< 5.00	7.69	–	–	–
O=C(NO)C1(S(=O)(=O)c2ccc(OCCCc3cccc(-c4ccc(F)c(F)c4)c3)cc2)CCOCC1 [Example 170]	< 5.00	8.17	–	–	–
O=C(NO)C1(S(=O)(=O)c2ccc(OCCCc3cccc(-c4ccc(Cl)cc4Cl)c3)cc2)CCOCC1 [Example 171]	< 5.00	7.90	–	–	–
O=C(NO)C1(S(=O)(=O)c2ccc(OCCCc3cccc(-c4cc(Cl)cc(Cl)c4)c3)cc2)CCOCC1 [Example 172]	< 5.00	7.15	–	–	–
CCCCc1ccc(-c2noc(CCCOc3ccc(S(=O)(=O)C4(C(=O)NO)CCOCC4)cc3)n2)c(C)c1 [Example 183]	< 5.00	7.82	–	–	–
COCCN1CCC(C(=O)NO)(S(=O)(=O)c2ccc(OCCCc3nc(-c4ccc(C5(c6ccccc6)CC5)cc4)no3)cc2)CC1 [Example 185]	< 5.00	8.43	–	–	–
COCCN1CCC(C(=O)NO)(S(=O)(=O)c2ccc(OCCCc3nc(-c4cccc5ccccc45)no3)cc2)CC1 [Example 199]	< 5.00	8.51	–	–	–
O=C(NO)C1(S(=O)(=O)c2ccc(OCCCc3ccc(F)c(-c4ccccc4)c3)cc2)CCOCC1 [Example 504]	–	–	< 5.00	8.33	–
CCCC(=O)CCCOc1ccc(S(=O)(=O)C2(C(=O)NO)CCOCC2)cc1 [Example 505]	–	–	6.02	9.09	–
CCCCC(=O)CCCOc1ccc(S(=O)(=O)C2(C(=O)NO)CCOCC2)cc1 [Example 506]	–	–	6.17	9.64	–
CCCCCCCOc1ccc(S(=O)(=O)C2(C(=O)NO)CCOCC2)cc1 [Example 507]	–	–	6.35	9.72	–
COCCN1CCC(C(=O)NO)(S(=O)(=O)c2ccc(OCCCc3cncc(-c4ccccc4)c3)cc2)CC1 [Example 508]	–	–	5.55	9.85	–
COCCN1CCC(C(=O)NO)(S(=O)(=O)c2ccc(OCCCc3cccc(-c4cccnc4)c3)cc2)CC1 [Example 509]	–	–	5.38	9.53	–
COCCN1CCC(C(=O)NO)(S(=O)(=O)c2ccc(OCCCc3cccc(-c4cccs4)c3)cc2)CC1 [Example 510]	–	–	5.66	9.60	–
COCCN1CCC(C(=O)NO)(S(=O)(=O)c2ccc(OCCCc3cccc(-c4cccc(F)c4)c3)cc2)CC1 [Example 511]	–	–	< 5.00	8.87	–
COCCN1CCC(C(=O)NO)(S(=O)(=O)c2ccc(OCCCc3cccc(-c4ccccc4F)c3)cc2)CC1 [Example 512]	–	–	< 5.00	8.97	–
COCCN1CCC(C(=O)NO)(S(=O)(=O)c2ccc(OCCCc3cccc(-c4ccc(F)cc4F)c3)cc2)CC1 [Example 513]	–	–	5.03	9.01	–
COCCN1CCC(C(=O)NO)(S(=O)(=O)c2ccc(OCCCc3cccc(-c4ccc(C#N)cc4)c3)cc2)CC1 [Example 514]	–	–	5.39	9.55	–
CCN1CCC(C(=O)NO)(S(=O)(=O)c2ccc(OCCCc3cccc(-c4ccc(Cl)cc4)c3)cc2)CC1 [Example 526]	–	–	< 5.00	8.40	–
Cc1ccc(NC(=O)CCCOc2ccc(S(=O)(=O)C3(C(=O)NO)CCOCC3)cc2)cc1I [Example 527]	–	–	5.87	10.36	–
CCC(=O)c1cccc(CCCOc2ccc(S(=O)(=O)C3(C(=O)NO)CCOCC3)cc2)c1 [Example 528]	–	–	5.24	8.59	–
O=C(NO)C1(S(=O)(=O)c2ccc(OCCCc3cccc(-c4ccc(O)cc4)c3)cc2)CCOCC1 [Example 529]	–	–	< 5.00	7.69	–

Source: US20040024024A1, “Aromatic sulfone hydroxamates and their use as protease inhibitors” (priority 2001, published 2004)
